Earlier results on one compound are cited in patent publication US20010014685A1, “Injectable pharmaceutical composition for treatment and reversal of erectile dysfunction” (USA DOCTORS PRODUCTS, INC., priority 1998, published 2001).

The data set concerns erectile dysfunction. The settings on record: injectable products including only prostaglandin-E1 / existing preparations.

Structures are written as SMILES.

`CCCCC[C@H](O)/C=C/[C@H]1[C@H](O)CC(=O)[C@@H]1CCCCCCC(=O)O` [prostaglandin-E1]: the “efficacy for treatment of erectile dysfunction” value is not above 50%.
